Data as given in PMC11881016, “Deep‐Learning‐Based Approaches for Rational Design of Stapled Peptides With High Antimicrobial Activity and Stability” (Microbial Biotechnology, 2025).
Values after ≈ are worked out from the molar mass of the structure shown. Where two headings read alike, the source gives them in different places. One block for each compound: values may come before it. *1 amine or outer side, *2 acyl side, *3 side chain or, on linkers, in order; H or OH if unused. Where a SMILES comes first, the peptide text is derived from it. Bridges are numbered along the chain shown (N, C = ends). Where no end group is shown, it is not given here. [ ]: non-standard residue; d: D form. X1 = O=C([C@H](CCCCNCC=[*:3])N[*:1])[*:2]; Octanediyl(1,8) = C(CCCC[*:2])CCC[*:1]; X2 = C(CCCCC[*:2])CCCC[*:1]

Columns and labels:
any bacteria = assay: Wet experiment result (antimicrobial activity of the synthesised peptides, positive/negative); format: cell-based; details: experiment data set (Supplement S12)
From the text: Supplement MBT2-18-e70121-s002.doc, table 9 | column: Wet Exp. Result

[1] = system: Klebsiella pneumoniae (K. pneumoniae, ATCC10031); format: cell-based; details: for MIC K. pneumoniae: ATCC10031; for increase of antimicrobial activity against K. pneumoniae: stapled peptide compared to its linear peptide
Method: (§1) Escherichia coli ( E. coli , ATCC25922), Klebsiella pneumoniae ( K. pneumoniae , ATCC10031), Staphylococcus aureus ( S. aureus , ATCC6538P), Pseudomonas aeruginosa ( P. aeruginosa , ATCC27853) and methicillin‐resistant Staphylococcus aureus (MRSA) were used to evaluate the antimicrobial activity of the peptides and were purchased from BeNa Culture Collection.
(§2) The MICs of the peptides in vitro were determined using the broth microdilution method with minor modifications (Wiegand et al. [2008]). Peptides were incubated with bacteria (about 5 × 10^5 CFU/mL), and PBS was used as the negative control. After 18–24 h of incubation at 37°C, the bacteria were checked for growth by recording the values at OD600, with three replicates in each group.

[2] = system: methicillin‐resistant Staphylococcus aureus (MRSA); format: cell-based; details: for MIC MRSA: methicillin‐resistant; for increase of antibacterial activity against MRSA: stapled peptide compared to its linear peptide
Method: as §1, §2

[3] = system: Pseudomonas aeruginosa (P. aeruginosa, ATCC27853); format: cell-based
Method: as §1, §2

[4] = system: Staphylococcus aureus (S. aureus, ATCC6538P); format: cell-based; details: ATCC6538
Method: as §1, §2

[5] = system: Escherichia coli (E. coli, ATCC25922); format: cell-based
Method: as §1, §2

[6] = Serum stability assay (residual antimicrobial activity against E. coli); format: in vitro ADME, bovine
Method: The serum stability assay was conducted as described by Li et al. ([2020]) with minor modifications. In brief, each peptide was dissolved in PBS solution containing 25% foetal bovine serum (FBS) at a final concentration of 2048 μg/mL and diluted after incubation for 8 h. E. coli was used as the bacterium for the stability assay, and the bacterial inhibition experiment was performed according to the bacterial inhibitory activity assay. Residual activity was calculated using the following formula: Residual activity=MICbefore/MICafter
• where MICbefore represents the MICs against E. coli before incubation, and MICafter represents the MICs against E. coli after incubation for 8 h.

Compound: CC[C@H](C)[C@H](NC(=O)[C@@H](N)CCCNC(=N)N)C(=O)N[C@@H](CC(C)C)C(=O)N[C@@H](CCCNC(=N)N)C(=O)N[C@@H](CCCCN)C(=O)N[C@@H](CC(C)C)C(=O)N[C@@H](CCCNC(=N)N)C(=O)N[C@H]1CCCCNC/C=C/CNCCCC[C@@H](C(=O)O)NC(=O)[C@H](CC(C)C)NC(=O)[C@H](Cc2ccccc2)NC(=O)[C@H](CCCNC(=N)N)NC1=O [GAN‐P2‐4‐St] (H-RILRKLR[X1]RFL[X1]-OH; staple (E) 8-12)
Wet Exp. Result (any bacteria): Positive
MIC K. pneumoniae [1]: 2 µg/mL (≈ 1.19 µM)
increase of antimicrobial activity against K. pneumoniae [1]: 2–4 fold
MIC MRSA [2]: 16 µg/mL (≈ 9.53 µM)
increase of antibacterial activity against MRSA [2]: 4 fold
MIC P. aeruginosa [3]: 16 µg/mL (≈ 9.53 µM)
MIC S. aureus [4]: 4 µg/mL (≈ 2.38 µM)
MIC E. coli [5]: 16 µg/mL (≈ 9.53 µM)

residual antimicrobial activity after incubation in 25% serum (in words) [6]: significantly decreased
MIC K. pneumoniae [1]: 16 µg/mL
MIC P. aeruginosa [3]: 64 µg/mL
MIC S. aureus [4]: 8 µg/mL
MIC E. coli [5]: 16 µg/mL
Compound: CC[C@H](C)[C@H](NC(=O)CN)C(=O)NCC(=O)N[C@@H](CCCCN)C(=O)N[C@@H](Cc1ccccc1)C(=O)N[C@@H](CC(C)C)C(=O)N[C@@H](Cc1c[nH]cn1)C(=O)N[C@@H](CO)C(=O)N[C@@H](C)C(=O)N[C@@H](CCCCN)C(=O)N[C@@H](CCCCN)C(=O)N[C@@H](Cc1ccccc1)C(=O)NCC(=O)N[C@@H](CCCCN)C(=O)N[C@@H](C)C(=O)N[C@@H](Cc1ccccc1)C(=O)N[C@H](C(=O)N[C@H]1CSSC[C@@H](C(=O)N[C@@H](CO)C(=O)O)NC(=O)[C@H](CC(C)C)NC(=O)[C@H]([C@@H](C)CC)NC(=O)[C@H](CCC(=O)O)NC1=O)C(C)C [Mag2(i + 4)17Dc] (H-GIGKFLHSAKKFGKAFVCEILCS-OH; disulfide 18-22)

Compound: CC[C@H](C)[C@H](NC(=O)[C@H](CCC(=O)O)NC(=O)CNC(=O)[C@@H](NC(=O)[C@H](Cc1ccccc1)NC(=O)[C@H](C)NC(=O)[C@H](CCCCN)NC(=O)CNC(=O)[C@H](Cc1ccccc1)NC(=O)[C@H](CCCCN)NC(=O)[C@H](CCCCN)NC(=O)[C@H](C)NC(=O)[C@H](CO)NC(=O)[C@H](Cc1c[nH]cn1)NC(=O)[C@H](CC(C)C)NC(=O)[C@@H]1CSCCCCCCCCSC[C@H](N)C(=O)N[C@@H]([C@@H](C)CC)C(=O)NCC(=O)N[C@@H](CCCCN)C(=O)N1)C(C)C)C(=O)N[C@@H](CC(C)C)C(=O)N[C@@H](CC(N)=O)C(=O)N[C@@H](CO)C(=O)O [Mag(i + 4)0St] (H-CIGKCLHSAKKFGKAFVGEILNS-OH; linker 1-5 via Octanediyl(1,8); N-terminus and C-terminus assumed)
Wet Exp. Result (any bacteria): Positive
decrease of residual antimicrobial activity after incubation in 25% serum [6]: approximately 50%
MIC K. pneumoniae [1]: 16 µg/mL
MIC P. aeruginosa [3]: 32 µg/mL
MIC S. aureus [4]: 32 µg/mL
MIC E. coli [5]: 4 µg/mL

Compound: CC[C@H](C)[C@H](NC(=O)CN)C(=O)NCC(=O)N[C@@H](CCCCN)C(=O)N[C@@H](Cc1ccccc1)C(=O)N[C@@H](CC(C)C)C(=O)N[C@@H](Cc1c[nH]cn1)C(=O)N[C@@H](CO)C(=O)N[C@@H](C)C(=O)N[C@@H](CCCCN)C(=O)N[C@@H](CCCCN)C(=O)N[C@H]1CSCCCCCCCCCCSC[C@@H](C(=O)N[C@H](C(=O)N[C@@H](CC(C)C)C(=O)N[C@@H](CC(N)=O)C(=O)N[C@@H](CO)C(=O)O)[C@@H](C)CC)NC(=O)CNC(=O)[C@H](C(C)C)NC(=O)[C@H](Cc2ccccc2)NC(=O)[C@H](C)NC(=O)[C@H](CCCCN)NC(=O)CNC1=O [Mag(i + 7)11St] (H-GIGKFLHSAKKCGKAFVGCILNS-OH; linker 12-19 via X2)
Wet Exp. Result (any bacteria): Positive
residual antimicrobial activity after incubation in 25% serum (in words) [6]: remained unchanged
MIC K. pneumoniae [1]: 8 µg/mL
MIC P. aeruginosa [3]: 32 µg/mL
MIC S. aureus [4]: 2 µg/mL
MIC E. coli [5]: 16 µg/mL

Compound: CC[C@H](C)[C@H](NC(=O)[C@H](CCCNC(=N)N)NC(=O)[C@H](CCCCN)NC(=O)[C@@H](N)Cc1c[nH]c2ccccc12)C(=O)N[C@@H](C)C(=O)N[C@H]1CCCCNC/C=C/CNCCCC[C@@H](C(=O)N[C@@H](CCCCN)C(=O)N[C@@H](CC(C)C)C(=O)NCC(=O)N[C@@H](CCCNC(=N)N)C(=O)N[C@@H](C)C(=O)N[C@@H](CCCCN)C(=O)N[C@@H](CC(C)C)C(=O)N[C@@H](Cc2ccccc2)C(=O)O)NC(=O)[C@H](CCCCN)NC(=O)[C@H](CC(C)C)NC(=O)[C@H](CCCNC(=N)N)NC1=O [VAE‐P3‐3‐St] (H-WKRIA[X1]RLK[X1]KLGRAKLF-OH; staple (E) 6-10)
Wet Exp. Result (any bacteria): Positive
MIC K. pneumoniae [1]: 1 µg/mL (≈ 0.436 µM)
increase of antimicrobial activity against K. pneumoniae [1]: 2–4 fold
MIC MRSA [2]: 4 µg/mL (≈ 1.74 µM)
increase of antibacterial activity against MRSA [2]: 4 fold
MIC P. aeruginosa [3]: 16 µg/mL (≈ 6.98 µM)
MIC S. aureus [4]: 4 µg/mL (≈ 1.74 µM)
MIC E. coli [5]: 16 µg/mL (≈ 6.98 µM)

Compound: CC[C@H](C)[C@H](NC(=O)[C@H](CCCNC(=N)N)NC(=O)[C@H](CCCCN)NC(=O)[C@@H](N)Cc1c[nH]c2ccccc12)C(=O)N[C@@H](C)C(=O)N[C@@H](CCCNC(=N)N)C(=O)N[C@H]1CCCCNC/C=C/CNCCCC[C@@H](C(=O)N[C@@H](CC(C)C)C(=O)NCC(=O)N[C@@H](CCCNC(=N)N)C(=O)N[C@@H](C)C(=O)N[C@@H](CCCCN)C(=O)N[C@@H](CC(C)C)C(=O)N[C@@H](Cc2ccccc2)C(=O)O)NC(=O)[C@H](CCCNC(=N)N)NC(=O)[C@H](CCCCN)NC(=O)[C@H](CC(C)C)NC1=O [VAE‐P3‐5‐St] (H-WKRIAR[X1]LKR[X1]LGRAKLF-OH; staple (E) 7-11)
Wet Exp. Result (any bacteria): Positive
MIC K. pneumoniae [1]: 4 µg/mL (≈ 1.72 µM)
MIC MRSA [2]: 16 µg/mL (≈ 6.89 µM)
MIC P. aeruginosa [3]: 32 µg/mL (≈ 13.8 µM)
MIC S. aureus [4]: 4 µg/mL (≈ 1.72 µM)
MIC E. coli [5]: 16 µg/mL (≈ 6.89 µM)

Compound: GIGKFLHSAKKFGKAFVGEIMNS [Mag2, magainin II, reference compound]
residual antimicrobial activity after incubation in 25% serum (in words) ([6]; 25% foetal bovine serum, 8 h, MIC against E. coli, Figure 7L): significantly decreased
